Molecular target: T1, human SHIP2 (Homo sapiens, UniProt O15357)
T1 construct: full-length human SHIP2 (aa 1–1 258) containing a C-terminal FLAG-tag; FLAG (C); made in house; host or cells: Expi293 cells (pcDNA3.4, transient)
T1 sequence (O15357 1-1258): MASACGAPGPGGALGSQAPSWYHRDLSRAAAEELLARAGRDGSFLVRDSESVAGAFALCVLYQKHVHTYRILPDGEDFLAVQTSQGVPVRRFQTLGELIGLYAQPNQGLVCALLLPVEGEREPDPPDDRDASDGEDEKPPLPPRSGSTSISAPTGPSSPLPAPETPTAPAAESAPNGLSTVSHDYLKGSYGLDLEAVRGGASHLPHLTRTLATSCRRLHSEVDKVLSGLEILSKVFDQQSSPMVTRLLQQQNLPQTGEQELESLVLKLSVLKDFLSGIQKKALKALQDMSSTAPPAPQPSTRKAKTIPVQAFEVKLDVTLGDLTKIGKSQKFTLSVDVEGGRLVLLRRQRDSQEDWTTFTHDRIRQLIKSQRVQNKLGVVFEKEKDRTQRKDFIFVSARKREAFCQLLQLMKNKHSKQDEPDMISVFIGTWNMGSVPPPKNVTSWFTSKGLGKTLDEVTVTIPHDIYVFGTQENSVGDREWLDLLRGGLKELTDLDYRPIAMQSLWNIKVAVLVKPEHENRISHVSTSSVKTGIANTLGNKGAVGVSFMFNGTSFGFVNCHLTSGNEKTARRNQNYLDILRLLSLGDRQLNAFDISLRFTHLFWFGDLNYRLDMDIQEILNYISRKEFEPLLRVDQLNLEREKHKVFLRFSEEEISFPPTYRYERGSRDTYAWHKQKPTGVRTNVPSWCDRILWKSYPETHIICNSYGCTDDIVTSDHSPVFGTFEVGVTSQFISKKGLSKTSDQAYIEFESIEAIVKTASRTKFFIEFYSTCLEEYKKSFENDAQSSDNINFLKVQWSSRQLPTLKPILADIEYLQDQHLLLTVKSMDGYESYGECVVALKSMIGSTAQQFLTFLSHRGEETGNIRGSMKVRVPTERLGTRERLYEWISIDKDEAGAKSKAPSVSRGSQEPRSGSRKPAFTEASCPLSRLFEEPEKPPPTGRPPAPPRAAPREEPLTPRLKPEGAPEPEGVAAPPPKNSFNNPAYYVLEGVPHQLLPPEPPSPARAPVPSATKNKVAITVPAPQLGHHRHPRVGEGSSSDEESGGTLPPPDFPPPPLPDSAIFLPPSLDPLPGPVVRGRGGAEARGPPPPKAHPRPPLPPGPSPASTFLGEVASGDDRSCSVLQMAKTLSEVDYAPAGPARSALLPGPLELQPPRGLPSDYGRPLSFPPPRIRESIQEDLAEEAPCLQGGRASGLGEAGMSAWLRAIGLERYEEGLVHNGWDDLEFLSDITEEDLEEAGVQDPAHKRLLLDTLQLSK
Assay: Inorganic phosphate detection assay for phosphatase inhibition
Type: biochemical
Settings: 20 µM diC8-PI(3,4,5)P3, 20 min
From the text: The protein purification is described in detail elsewhere. Briefly, full-length human INPP5K (amino acids 1–448, UniProt ID: Q9BT40), rat INPP5K (aa 1–446, UniProt ID: Q9R0B6), mouse INPP5K (aa 1–468, UniProt ID: Q8C5L6), hamster INPP5K (aa 1–453, UniProt ID: G3HTF6), guinea pig INPP5K (aa 1–473, UniProt ID: H0V8T7) containing an N-terminal FLAG-tag, full-length human SHIP2 (aa 1–1 258) containing a C-terminal FLAG-tag, and full-length human PIPP (amino acids 1–1 006) containing an N-terminal His8-tag were all cloned into the pcDNA3.4 expression vector and transiently expressed in Expi293 cells (Thermo Fisher Scientific). The PH domain of human TAPP1 (amino acids 180–404) containing an N-terminal GST-tag was expressed in a pGEX6P1 expression vector (GE Healthcare) in E. coli strain BL21 ((Merck KGaA, Darmstadt, Germany)), following IPTG induction at 37 °C for 5 h. All the FLAG-tagged INPP5Ks and hSHIP2 were purified using affinity columns containing DDDDK-tagged protein purification gel (MBL, Medical & Biological Laboratories Co., Ltd., Tokyo, Japan), followed by size-exclusion chromatography with Superdex 200 columns (GE Healthcare). His8-tagged hPIPP was purified using Ni–NTA Superflow (Qiagen) and Superdex 200 columns. The GST-tagged hTAPP1 domain was purified using a Glutathione Sepharose 4B (GE Healthcare) and Superdex 200 columns. The purity of the protein obtained was evaluated using SDS-PAGE.
The release of inorganic phosphate was measured using a PiPer Phosphate Assay Kit (Thermo Fisher Scientific), according to the manufacturer’s instructions, but with some modifications. Enzyme reactions were performed in a final volume of 10 µL per well in a 384-well nonbinding black plates (Greiner Bio-One International, GmbH, Kremsmünster, Austria). The reaction mixtures containing 20 µM diC8-PI(3,4,5)P₃ and each enzyme (human INPP5K, mouse INPP5K, rat INPP5K, hamster INPP5K, guinea pig INPP5K, human SHIP2, or human PIPP) in reaction buffer (50 mM Tris–HCl pH 7.0, 150 mM NaCl, 7.5 mM MgCl₂, 0.03% Igepal CA-630, 0.03% gelatin), with or without various concentrations of inhibitor, were incubated for 20 min at room temperature. The reactions were then stopped and detection reactions were initiated by adding 5 µL of detection mix 1 (60 mM EDTA, 12 U/mL maltose phosphorylase, and 0.6 mM maltose in 100 mM Tris–HCl pH 8.0). After incubation for 60 min at room temperature, 5 µL of detection mix 2 (8 U/mL glucose oxidase, 0.8 U/mL HRP, and 100 µM Amplex Red in 100 mM Tris–HCl pH 8.0) was added, and the mixture was incubated for a further 30 min at room temperature in the dark. The fluorescence generated was measured using an Envision plate reader at 531/590 nm (excitation/emission), and the percentage inhibition was calculated as described above.

Compound: CC(C)c1sc(NC(=O)c2ccccc2)c(C(=O)O)c1-c1ccccc1 [CPD-1]
- IC50: > 100 µM
